This note sets out measurements from patent US7807712B2, “Oxy substituted chalcones as antihyperglycemic and antidyslipidemic agents” (priority 2004, dated 2010).

SMILES strings stand for the structures. Where two headings read alike, the source gives them in different places.

Series [1] deals with streptozotocin-induced diabetic rats. The series can be described thus: Sucrose-challenged streptozotocin-induced diabetic rats (STZ-S), antihyperglycemic activity. It counts as in vivo, rat (Sprague Dawley). The following applies: 100 mg/kg oral, sucrose load 2.5 g/kg, AUC vs control. The procedure: Male albino rats of Sprague Dawley strain of body weight […] were selected for this study. Streptozotocin (Sigma, USA) was dissolved in 100 mM citrate buffer pH 4.5 and calculated amount of the fresh solution was injected to overnight fasted rats (45 mg/kg) intraperitoneally. Blood glucose level was checked 48 h later by glucostrips and animals showing blood glucose values between 144 to 270 mg/dl (8 to 15 mM) were included in the experiment and termed diabetic. The diabetic animals were divided into groups consisting of five to six animals in each group. Animals of experimental groups were administered suspension of the desired test samples orally (made in 1.0% gum acacia) at a dose of 100-mg/kg-body weight. Animals of control group were given an equal amount of 1.0% gum acacia. A sucrose load of 2.5-g/kg body weight was given after 30 minutes of compound administration. After 30 minutes of post sucrose load blood glucose level was again checked by glucostrips at 30, 60, 90, 120, 180, 240, 300 min and at 24 h, respectively. Animals not found diabetic after 24 hours post treatment of the test sample were not considered and omitted from the calculations and termed as non-responders. […] Food but not water was withheld from the cages during the experimentation. Comparing the AUC of experimental and control groups determined the percent antihyperglycemic activity. Statistical comparison between groups was made by Student's ‘t’ test.

The test system of series [2] is triton WR-1339 induced hyperlipidemic rats. The series can be described thus: Triton model, antidyslipidemic activity. The format is in vivo, rat (Charles foster). The settings on record: Rattus norvegicus, 100 mg/kg oral. The procedure:
Male Charles foster rats weighing 200-225 g were divided into control, hyperlipidemic and hyperlipidemic plus drug treated groups containing six animals in each group. Hyperlipidemia was induced by administration of triton WR-1339 (200 mg/kg i.p.). All animals were maintained on a special pellet diet and water ad libitum. Compounds and standard drug were macerated with 0.2% aqueous gum acacia suspension. The suspension was fed orally at the dose of 100 mg/kg simultaneously with triton in drug treated group. The animals of control group received the same amount of gum acacia by similar route of administration. At the end of the experiment, after 18 h, blood was withdrawn from retro orbital plexus and plasma was used for the assay of total cholesterol, phospholipid and triglycerides.
Cholesterol was estimated using the kit provided by Roche Diagnostics. Cholesterol esters are enzymatically hydrolyzed by cholesterol esterase (CE) to cholesterol and free fatty acids. Free cholesterol, including that originally present, is then oxidized by cholesterol oxidase (CO) to cholest-4-en-3-one and hydrogen peroxide. The hydrogen peroxide combines with hydroxy benzoic acid (HBA) and 4-aminoantipyrine (4AAA) in the presence of peroxidase (POD) to form a chromophore (quinoneimine dye), which may be quantitated at 500-505 nm. The intensity of red colour formed is directly proportional to the concentration of total cholesterol in the specimen and measured spectrophotometrically (Searcy, C. L. Diagnostic Biochemistry, 1969, McGraw Hill, New York; Ellefson, R. D.; Caraway, W. T. Fundamentals of clinical chemistry, 1976, Ed Tietz N W, 506-515.)
Triglycerides were estimated using the kit provided by Roche Diagnostics. Lipoprotein lipase hydrolyses triglycerides to yield glycerol and fatty acids. Glycerol kinase converts glycerol to glycerol-3-phosphate, which is oxidized by glycerol phosphate oxidase to dihydroxy acetone phosphate and hydrogen peroxide. In the presence of peroxidase, hydrogen peroxide oxidatively couples with 4-aminoantipyrine and 4-chloro phenol to produce red quinonimine dye. The intensity of red colour formed is directly proportional to the concentration of triglycerides in the specimen and is measured by photometrically (Wahlefeld, A. W.; Bergmeyer, H. U. Ed. Methods of enzymatic analysis, 2nd English edition, New York, N.Y., Academic press inc, 1831-1840.).
Serum (0.2 mL) and perchloric acid (1.0 mL) was digested at 180° C. for 1-1.5 h till the solution became colorless. The liberated inorganic phosphate (Pi) was measured by the method of Fiske and Subbarow (Fiske, C. H.; Subbarow, V. J. Biol. Chem. 1925, 66, 375.). 1 mL of 2.5% ammonium molybdate (prepared in 5 N sulphuric acid) and 0.5 mL reducing agent (4-amino naphthol sulphonic acid, 0.2%), sodium metabisulphite (2.4% w/v in distilled water) was added to the above tubes and mixed well. The reaction mixture was […] with 2.5 mL of triple distilled water and kept at 60° C. in water bath for 20 min. For standard, an appropriate amount of potassium dihydrogen phosphate dissolved in triple distilled water containing 2-10 μg phosphorus (Pi) was run simultaneously with the experiment tubes. The optical density of the blue colour was recorded at 620 nm against reagent blank. The values of Pi were converted into phospholipid by multiplying with 25 (a constant calibrated from Pi value of lecithin).

The test system of another series is sucrose loaded rats. The series can be described thus: Sucrose loaded rat model (SLM), antihyperglycemic activity. It counts as in vivo, rat (Charles Foster/Wistar). The following applies: Rattus norvegicus, 2 h; 100 mg/kg oral; sucrose load 10.0 g/kg; AUC vs control, 30-120 min; read-out: % Fall in blood glucose levels SLM. The procedure:
Male albino rats of Charles Foster/Wistar strain of average body weight 160±20 g were selected for this study. The blood glucose level of each animal was checked by glucometer using glucostrips (Boehringer Mannheim) after 16 h starvation. Animals showing blood glucose levels between 3.33 to 4.44 mM (60 to 80 mg/dl) were divided into groups of five to six animals in each. Animals of experimental group were administered suspension of the desired synthetic compound orally (made in 1.0% gum acacia) at a dose of 100-mg/kg-body weight. Animals of control group were given an equal amount of 1.0% gum acacia. A sucrose load (10.0 g/kg) was given to each animal orally exactly after 30 min post administration of the test sample/vehicle. Blood glucose profile of each rat was again determined at 30, 60, 90 and 120 min post administration of sucrose by glucometer. Food but not water was withheld from the cages during the course of experimentation. Quantitative glucose tolerance of each animal was calculated by Area Under Curve (AUC) method (Prism Software). Comparing the AUC of experimental and control groups determined the percentage antihyperglycemic activity. Statistical comparison was made by Dunnett's test.

Where [3] appears, read: plasma phospholipid after 18 h, read-out: % Fall in lipid levels (Triton model) PL.
[4] abbreviates: plasma total cholesterol after 18 h, read-out: % Fall in lipid levels (Triton model) TC.
The mark [5] stands for this setting: plasma triglycerides after 18 h, read-out: % Fall in lipid levels (Triton model) TG.

For `COc1ccc(/C=C/C(=O)c2ccc(OCC(O)CNC(C)(C)C)cc2)cc1OC` (stereo not shown) [Compound 19, 4′-[3-tert-Butylamino-2-hydroxy-propoxy]-3,4-dimethoxy-chalcone], the melting point – broadly, the temperature of the solid-liquid transition – was 62 to 64 °C. Moreover, in series [1], the “% Fall in blood glucose levels STZ-S 5 h” value was “NIL” and the “% Fall in blood glucose levels STZ-S 24 h” value is “NIL”. For the same molecule, in series [2] (setting [3]), the inhibition in vivo at 100 mg/kg was 22%. The inhibition in vivo at 100 mg/kg in series [2] (setting [4]) was 21%. Further, in series [2] (setting [5]), the inhibition in vivo at 100 mg/kg came out at 19%. Besides, the inhibition in vivo at 100 mg/kg in the series on sucrose loaded rats came out at 11.2%.
Turning to `COc1ccc(/C=C/C(=O)c2ccc(OCC(O)CN3CCN(c4ccccc4)CC3)cc2)cc1` (stereo not shown) [Compound 20, 4′-[2-Hydroxy-3-(4-phenylpiperazin-1-yl)-propoxy]-4-methoxy-chalcone], the melting point was 165 to 167 °C. Further, in series [1], the “% Fall in blood glucose levels STZ-S 5 h” value is listed as “NIL” and the “% Fall in blood glucose levels STZ-S 24 h” value is “NIL”. Besides, the inhibition in vivo at 100 mg/kg in series [2] (setting [3]) is 11%. For the same molecule, the inhibition in vivo at 100 mg/kg in series [2] (setting [4]) was found to be 11%. Besides, the inhibition in vivo at 100 mg/kg in series [2] (setting [5]) is 10%. Moreover, in the series with sucrose loaded rats, the inhibition in vivo at 100 mg/kg came to 7.78%.
With `COc1ccc(/C=C/C(=O)c2ccc(OCC(O)CN3CCN(c4ccccc4OC)CC3)cc2)cc1` (stereo not shown) [Compound 24, 4′-[2-Hydroxy-3-{4-(2-methoxyphenyl)-piperazin-1-yl}-propoxy]-4-methoxy-chalcone], the melting point is 97 to 98 °C. Further, in series [1], the “% Fall in blood glucose levels STZ-S 24 h” value was found to be 6.18%. Further, in series [2] (setting [3]), the inhibition in vivo at 100 mg/kg is 15%. In series [2] (setting [4]), the inhibition in vivo at 100 mg/kg was determined as 24%. Also, in series [2] (setting [5]), the inhibition in vivo at 100 mg/kg is 14%. Moreover, the inhibition in vivo at 100 mg/kg with sucrose loaded rats is 10.8%.
Molecule `CC(C)CNCC(O)COc1ccc(C(=O)/C=C/c2ccc3c(c2)OCO3)cc1` (stereo not shown) [Compound 35, 4′-[3-iso-Butylamino-2-hydroxy-propoxy]-3,4-methylenedioxy-chalcone] showed a melting point of 122 to 123 °C. For the same molecule, the “% Fall in blood glucose levels STZ-S 24 h” value in series [1] is reported as 11.6%. In addition, the inhibition in vivo at 100 mg/kg in series [2] (setting [3]) came to 9%. Moreover, in series [2] (setting [4]), the inhibition in vivo at 100 mg/kg worked out at 13%. The inhibition in vivo at 100 mg/kg in series [2] (setting [5]) is 13%. The inhibition in vivo at 100 mg/kg in the series with sucrose loaded rats is 23.8%.
The molecule `COc1ccc(/C=C/C(=O)c2ccc(OCC(O)CNC(C)(C)C)cc2)cc1` (stereo not shown) [Compound 22, 4′-[3-tert-Butylamino-2-hydroxy-propoxy]-4-methoxy-chalcone] showed a melting point of 70 to 71 °C. Besides, in series [1], the “% Fall in blood glucose levels STZ-S 5 h” value is recorded as “NIL” and the “% Fall in blood glucose levels STZ-S 24 h” value is reported as “NIL”. For the same molecule, the inhibition in vivo at 100 mg/kg in series [2] (setting [3]) is 11%. In addition, in series [2] (setting [4]), the inhibition in vivo at 100 mg/kg was 16%. Further, in series [2] (setting [5]), the inhibition in vivo at 100 mg/kg worked out at 21%. In addition, the inhibition in vivo at 100 mg/kg in the series with sucrose loaded rats came out at 11.8%.
`COc1ccc(/C=C/C(=O)c2ccccc2OCC(O)CNC(C)C)cc1` (stereo not shown) [Compound 32, 2′-[2-Hydroxy-3-iso-propylamino-propoxy]-4-methoxy-chalcone] showed a melting point of 88 to 89 °C. Also, the “% Fall in blood glucose levels STZ-S 24 h” value in series [1] was 2.77%. Also, in series [2] (setting [3]), the inhibition in vivo at 100 mg/kg turned out to be 15%. Also, the inhibition in vivo at 100 mg/kg in series [2] (setting [4]) is 22%. Also, in series [2] (setting [5]), the inhibition in vivo at 100 mg/kg was 29%. In addition, the inhibition in vivo at 100 mg/kg with sucrose loaded rats was determined as 47%.
`COc1ccc(/C=C/C(=O)c2cccc(OCC(O)CNC(C)C)c2)cc1` (stereo not shown) [Compound 29, 3′-[2-Hydroxy-3-iso-propylamino-propoxy]-4-methoxy-chalcone] returned a melting point of 102 to 103 °C. Moreover, in series [1], the “% Fall in blood glucose levels STZ-S 5 h” value is “NIL” and the “% Fall in blood glucose levels STZ-S 24 h” value is “NIL”. Besides, the inhibition in vivo at 100 mg/kg in series [2] (setting [3]) was determined as 27%. For the same molecule, in series [2] (setting [4]), the inhibition in vivo at 100 mg/kg was determined as 33%. The inhibition in vivo at 100 mg/kg in series [2] (setting [5]) came out at 27%. The inhibition in vivo at 100 mg/kg in the series with sucrose loaded rats was 6.85%.
